Where a name gives a salt, the structure may show the parent alone. Read-outs that look alike come from different tables or passages of the source.
What was measured:
SARS-CoV-2 [1] = experiment: Golden Syrian Hamster SARS-CoV-2 efficacy model; assay type: in vivo; conditions: for live viral titers in the lungs: day 5, plaque assay
[2] = Pharmacokinetic studies in Syrian hamsters; assay type: in vivo; conditions: single 500 mg/kg PO dose, hamster plasma
Procedure: Pharmacokinetic Studies. Pharmacokinetic studies were conducted at Scripps Research Institute's Animal Models Core in accordance with IACUC guidelines (IACUC Protocol #09-0004-5). Eight-week old male Syrian Hamsters (Charles River) (three per group) were dosed PO as indicated for each compound and formulation. Plasma concentration of each test article was monitored up to 48 h. Nelfinavir was formulated in 10% DMSO/90% corn oil and MK-4482 was formulated in 10% PEG400/2.5% Cremaphor RH40 for both pharmacokinetic and efficacy studies.

SARS-CoV-2 [3] = experiment: microbe, parasite or virus in culture
[4] = dog, oral; cited from earlier work
HeLa-ACE2 cells [5] = experiment: cells; assay type: cell-based, human; conditions: Homo sapiens, HeLa-ACE2, read-out: HeLa-ACE-2 EC50 [μM] (Geomeans, n ≥ 2)
SARS-CoV-2 [6] = conditions: for EC50: read-out: HeLa-ACE2 CoV-2 EC50, aggregated data, Geomean, n = 3
in vitro = conditions: human
[7] = rat, oral; cited from earlier work
SARS-CoV-2 [8] = experiment: Time of addition (TOA) assay in HeLa-ACE2 cells; assay type: cell-based; conditions: for activity when treatment initiated at 1 hpi: 10 μM, HeLa-ACE2, time course 4 to 24 hpi
SARS-CoV-2 [9] = conditions: for Calu3 SI CC50/CoV-2 EC50 / EC50: Table 4; for EC50: read-out: Calu-3 CoV-2 EC50, aggregated data, Geomean, n = 3, 48 h
SARS-CoV-2 [10] = experiment: SARS-CoV-2 primary ALI HBEC model; assay type: cell-based; conditions: apical washes 72 hpi
Procedure: SARS-CoV-2 primary ALI HBEC model. Normal primary human bronchial epithelial cells (HBECs) (Lonza) were cultured in Millicell-96 cell culture insert plates with 1 μm PET filters (Sigma) at an air liquid interface for at least 4 weeks using PneumaCult™-ALI Medium (Stemcell Technologies). Briefly, the HBECs were first expanded in cell culture flasks before seeding 10,000 cells per well submerged in PneumaCult™-Ex Plus Medium. After 1 week, the cells were switched into PneumaCult™-ALI Medium and medium was removed from the apical surface. The air liquid interface was maintained, and the medium exchanged every 2-3 days for at least 4 weeks to allow for differentiation of the cells. Prior to infection, the apical surface was rinsed once with DPBS and compounds were added to the basolateral chamber. 20,000 PFU SARS-CoV-2 strain USA-WA1/2020 were added to the apical surface in 50 μL PBS and allowed to incubate for 2 h. The inoculum was then removed, and the cells rinsed once with DPBS. The medium was exchanged, and fresh compound added at 24 and 48 h post-infection. Apical washes were collected at 72 h post-infection by adding 100 μL DPBS to the apical surface for 15 minutes. RNA was isolated from the apical washes using the PureLink™ Pro 96 Viral RNA/DNA Purification Kit (Thermo Fisher) and analyzed for viral RNA levels by RT-qPCR using the SuperScript™ III Platinum™ One-Step qRT-PCR Kit (Thermo Fisher) and the 2019-nCoV N1 CDC Primers and Probe set (Integrated DNA Technologies). A standard curve was generated by isolating RNA from serial dilutions of the stock virus and used to determine the PFU equivalents/mL for each sample. The viral load reductions were then determined for each experimental compound treatment compared to the neutral DMSO control and plotted in log scale. Cytotoxicity was assessed by measuring LDH activity in the basolateral media using a Cytotoxicity Detection kit (LDH) (Sigma) following the manufacturer's instructions. […] Technical triplicates were run for both antiviral and cytotoxicity readouts. […]

SARS-CoV-2 [11] = experiment: Checkerboard synergy study with remdesivir (ZIP model, synergyfinder); assay type: cell-based; conditions: for Synergy score with remdesivir (δ): Table 3
[12] = human, oral; cited from earlier work
[13] = in vivo; cited from earlier work
HeLa-ACE2 cells [14] = conditions: read-out: HeLa-ACE2 Uninfected Tox CC50; Table 4; aggregated data, Geomean, n = 3
[15] = Severe acute respiratory syndrome coronavirus 2, HeLa-ACE2, 24 h, read-out: CoV-2 EC50 [μM] (Geomeans, n ≥ 2)
[16] = Severe acute respiratory syndrome coronavirus 2, HeLa-ACE2, read-out: SARS CoV-2 EC50 (μM)
[17] = CC50 [μM] (Geomeans, n ≥ 2 except where indicated: *n = 1)
[18] = read-out: Calu-3 Uninfected Tox CC50, Table 4, aggregated data, Geomean, n = 3

Procedure for Calu-3 cells: To assess cell viability, 2 μL of 50% Cell-Titer Glo (Promega No G7573) diluted in water was added to the cells and luminescence measured on an EnVision Plate Reader (Perkin Elmer).
Data analysis. […] Primary in vitro screen and the host cell cytotoxicity counter screen data were uploaded to Genedata Screener, Version 16.0.3-Standard. […] For the uninfected host cell cytotoxicity counter screens, 40 μM puromycin (Sigma) was used as the positive (inhibitory) control in HeLa-ACE2, HepG2 and HEK293T cells, and 30 μM puromycin (Sigma) was used as the positive (inhibitory) control for Calu-3 cells. For dose response experiments compounds were tested in technical triplicates on different assay plates and dose curves were fitted with the four parameter Hill Equation. Technical replicate data were analyzed using median condensing. Geometric means and geometric standard deviations are reported for compound activities (EC50s and CC50s) obtained in multiple independent biological experiments. […] Geometric means were calculated by computing the logarithm (base 10) of all values, calculating the mean of these logarithms, and taking the antilog of that mean. Geometric standard deviations were computed by taking the standard deviation of the log-transformed individual values and taking the antilog of that standard deviation. The geometric standard deviation is a unitless ratio and reported as ×÷ instead of +/−.

Cc1c(O)cccc1C(=O)N[C@@H](CSc1ccccc1)[C@H](O)CN1C[C@H]2CCCC[C@H]2C[C@H]1C(=O)NC(C)(C)C [nelfinavir]
protection from weight loss and viral replication (SARS-CoV-2 [1]; 500 mg/kg PO BID): failed to protect animals from weight loss and viral replication
time over Calu-3 SARS-CoV-2 EC50 [2]: ~3 h

O=S(=O)(Nc1ccc(CCNC[C@H](O)c2cccnc2)cc1)c1ccc(-c2nc(-c3ccc(C(F)(F)F)cc3)cs2)cc1 [L 796568]
EC50 (SARS-CoV-2 [3]; [15]): 1.04 µM
EC50 (SARS-CoV-2 [3]; [16]): 1.04 µM
Cmax [4]: ~300 nM
t1/2 [4]: ~14 h (dog, oral)(32)
EC50 (HeLa-ACE2 cells [5]): 3.14 µM
HeLa-ACE2 CC50/CoV-2 EC50 (SARS-CoV-2 [6]): 5.28
CC50 (in vitro; [17]): 5.51 µM
CC50 (in vitro; Uninfected HeLa-ACE2 CC50 (μM)): 5.51 µM

N#Cc1c(N)nc(N)nc1N[C@H](c1nc2c(F)ccc(Cl)c2c(=O)n1-c1cccnc1)C1CC1 [GS-9901]
EC50 (SARS-CoV-2 [3]; [15]): 3.81 µM
HeLa-ACE2 CC50/CoV-2 EC50 (SARS-CoV-2 [6]): >8.17
Cmax [7]: ~1800 nM
t1/2 [7]: ~2 h (rat, oral)(36)
CC50 (in vitro; [17]): > 31.1 µM
CC50 (in vitro; Uninfected HeLa-ACE2 CC50 (μM)): > 31.1 µM

CC(C)C(=O)OC[C@H]1O[C@@H](n2ccc(NO)nc2=O)[C@H](O)[C@@H]1O [MK-4482/EIDD-2801/Molnupiravir, Molnupiravir]
EC50 (SARS-CoV-2 [3]; [15]): > 9.45 µM
HeLa-ACE2 CC50/CoV-2 EC50 (SARS-CoV-2 [6]): >4.21
activity in HeLa-ACE2 infection assay (SARS-CoV-2 [6]): not active
CC50 (in vitro; [17]): > 39.8 µM
viral reduction compared to vehicle control (SARS-CoV-2 [1]; 50 mg/kg PO BID, day 5): 99%
live viral titers in the lungs (SARS-CoV-2 [1]; 150 mg/kg PO BID): undetectable
host immune response (RNA Seq on hamster lungs) (SARS-CoV-2 [1]; 500 mg/kg PO BID): near-complete protection from host immune response
live viral titers in the lungs (SARS-CoV-2 [1]; 500 mg/kg PO BID): undetectable
lung histological examination (SARS-CoV-2 [1]; MK-4482-treated hamsters vs vehicle): protected
time over HeLa-ACE2 and Calu-3 EC50 [2]: ≥ 7 h

CC[C@H]1OC(=O)[C@H](C)[C@@H](O[C@H]2C[C@@](C)(OC)[C@@H](O)[C@H](C)O2)[C@H](C)[C@@H](O[C@@H]2O[C@H](C)C[C@H](N(C)C)[C@H]2O)[C@](C)(O)C[C@@H](C)CN(C)[C@H](C)[C@@H](O)[C@]1(C)O [azithromycin]
classification as entry inhibitor in HeLa-ACE2 cells (SARS-CoV-2 [8]): entry inhibitors
activity in Calu-3 infection assay (SARS-CoV-2 [9]): not active

N=C(N)c1ccc2cc(OC(=O)c3ccc(N=C(N)N)cc3)ccc2c1 [nafamostat mesylate]
viral replication in ALI-HBECs (SARS-CoV-2 [10]): inhibited viral replication
activity in HeLa-ACE2 infection assay (SARS-CoV-2 [6]; text b101-b103): not active
activity in Calu-3 infection assay (SARS-CoV-2 [9]): active

Cc1cccc(/C=N/Nc2cc(N3CCOCC3)nc(OCCc3ccccn3)n2)c1 [Apilimod]
viral replication in ALI-HBECs (SARS-CoV-2 [10]): did not
EC50 (SARS-CoV-2 [3]; [15]): < 0.006 µM
EC50 (SARS-CoV-2 [3]; [16]): < 0.006 µM
EC50 (SARS-CoV-2 [3]; Severe acute respiratory syndrome coronavirus 2, HeLa-ACE2, read-out: SARS-CoV-2 EC50): 0.184 µM
interaction with remdesivir (SARS-CoV-2 [11]): additive
Synergy score with remdesivir (δ) (SARS-CoV-2 [11]): 3.57
EC50 (HeLa-ACE2 cells [5]): > 9.6 µM
Cmax [12]: ~600 nM
t1/2 [12]: ~3 h (human, oral)(27)
HeLa-ACE2 CC50/CoV-2 EC50 (SARS-CoV-2 [6]): >4353.33
increase in EC50 from MOI=1 to MOI=26 (SARS-CoV-2 [6]): 3.7 fold
classification as entry inhibitor in HeLa-ACE2 cells (SARS-CoV-2 [8]): entry inhibitors
activity when treatment initiated at 1 hpi (SARS-CoV-2 [8]): Loss of activity
CC50 (in vitro; [17]): > 27.8 µM
CC50 (in vitro; Uninfected HeLa-ACE2 CC50 (μM)): > 27.8 µM
CC50 (in vitro; uninfected HeLa-ACE2 CC50): > 40 µM
activity in Calu-3 infection assay (SARS-CoV-2 [9]): not active

CCN(CCO)CCCC(C)Nc1ccnc2cc(Cl)ccc12 (centres unmarked) [hydroxychloroquine, nasal, hydroxychloroquine]
EC50 (SARS-CoV-2 [3]; [15]): 0.458 µM
EC50 (SARS-CoV-2 [3]; [16]): 0.458 µM
Synergy score with remdesivir (δ) (SARS-CoV-2 [11]): −1.572
Cmax [12]: ~1700 nM
t1/2 [12]: ~55 h (human oral)(18)
HeLa-ACE2 CC50/CoV-2 EC50 (SARS-CoV-2 [6]): >40.04
classification as entry inhibitor in HeLa-ACE2 cells (SARS-CoV-2 [8]): entry inhibitors
activity when treatment initiated at 1 hpi (SARS-CoV-2 [8]): Loss of activity
CC50 (in vitro; [17]): > 18.3 µM
CC50 (in vitro; Uninfected HeLa-ACE2 CC50 (μM)): > 18.3 µM
activity in Calu-3 infection assay (SARS-CoV-2 [9]): not active
mortality of hospitalized COVID-19 patients [13]: failed to reduce mortality

Nc1nc2[nH]cnc2c(=S)[nH]1 [Tioguanine]
CC50 (HeLa-ACE2 cells [14]): 2.82 µM
CC50 (Calu-3 cells): 0.822 µM
HeLa-ACE2 SI CC50/CoV-2 EC50 (SARS-CoV-2 [6]; Table 4): 3.58
EC50 (SARS-CoV-2 [6]; Table 4): 0.787 µM
Calu3 SI CC50/CoV-2 EC50 (SARS-CoV-2 [9]): 6.45
EC50 (SARS-CoV-2 [9]): 0.127 µM

NCCc1cn(S(=O)(=O)c2c(Cl)nc3sccn23)c2ccccc12 [SAX-187]
EC50 (SARS-CoV-2 [3]; [15]): 1.85 µM
EC50 (SARS-CoV-2 [3]; [16]): 1.85 µM
EC50 (HeLa-ACE2 cells [5]): > 9.37 µM
HeLa-ACE2 CC50/CoV-2 EC50 (SARS-CoV-2 [6]): 4.02
Cmax [7]: 400 nM
t1/2 [7]: ~3 h (rat, oral)(39)
CC50 (in vitro; [17]): 7.43 µM
CC50 (in vitro; Uninfected HeLa-ACE2 CC50 (μM)): 7.43 µM

COc1ccc2cc1Oc1ccc(cc1)C[C@H]1c3cc(c(OC)cc3CCN1C)Oc1c(OC)c(OC)cc3c1[C@H](C2)N(C)CC3 [Hanfangchin A]
EC50 (SARS-CoV-2 [3]; [15]): 1.18 µM
EC50 (SARS-CoV-2 [3]; [16]): 1.18 µM
Synergy score with remdesivir (δ) (SARS-CoV-2 [11]): −3.61
HeLa-ACE2 CC50/CoV-2 EC50 (SARS-CoV-2 [6]): >16.08
Cmax [7]: ~500 nM
t1/2 [7]: ~20 h (rats, oral)(31)
CC50 (in vitro; [17]): > 18.9 µM
CC50 (in vitro; Uninfected HeLa-ACE2 CC50 (μM)): > 18.9 µM

COC1(c2cc(F)cc(OCc3ccc4c(ccc(=O)n4C)c3)c2)CCOCC1 [ZD 2138]
CC50 (HeLa-ACE2 cells [14]): 28.7 µM
CC50 (Calu-3 cells; [18]): 14.4 µM
EC50 (SARS-CoV-2 [6]; Table 4): > 9.59 µM
Calu3 SI CC50/CoV-2 EC50 (SARS-CoV-2 [9]): 5.18
EC50 (SARS-CoV-2 [9]): 2.79 µM

CN(C)C(C(=O)Nc1ccc2c(=O)[nH]ccc2c1)c1ccsc1 (centres unmarked) [Verosudil]
CC50 (HeLa-ACE2 cells [14]): > 39.8 µM
CC50 (Calu-3 cells; [18]): 18.9 µM
EC50 (SARS-CoV-2 [6]; Table 4): > 9.59 µM
Calu3 SI CC50/CoV-2 EC50 (SARS-CoV-2 [9]): 5.39
EC50 (SARS-CoV-2 [9]): 3.51 µM
